# Source: patent publication US10894032B2, “Microbial-relief composition” (Curazene, LLC, priority 2014, dated 2021)
# Read-outs that look alike come from different tables or passages of the source.
# What was measured:
# mycobacteria marinum = assay: Example 7 finger infection of a patient; type: in vivo, human; conditions: eleven days of antibiotics before the composition
# Experimental: Action against Mycobacteria: A person with four-month long history of an infection on the posterior aspect of their right ring finger was treated. […] After failing two full courses of oral antibiotics, over the previous four months, the patient was given a third round of antibiotics, this time Clarythromycin, after their finger's condition had worsened.
# MRSA = conditions: human, in vivo; cited from earlier work
# Enterococcus = assay: Example 6 infected decubitus ulcer of a patient; type: in vivo, human; conditions: five days of antibiotic before the composition
# Excerpt: Both swabs were sent to the lab and a count of colony-forming units (CFUs) was ordered.
# MRSA strains = conditions: averaged over three repeated experiments
# Excerpt: (§1) Bacterial strain: Two well characterized strains of methicillin-sensitive Staphylococcus aureus (MSSA) and methicillin-resistant Staphylococcus aureus (MRSA) were used. Specifically, experiments used ATCC 29213 (MSSA) and ATCC 43330 (MRSA), both beta-lactamase positive strains, which represent greater than 90% of the respective strains in the American population.
# (§2) Petri dish preparation: A sterile cotton swab (American Scientific Products, McGraw Park, Ill.) was dipped into the cultures and used to swab the entire surface of 150×15 mm Petri dishes containing 75 ml of standard Mueller-Hinton agar. Two Petri dishes were inoculated with ATCC 29213 (MSSA and two Petri dishes with ATCC 43330 (MRSA). One Petri dish of each group (MSSA and MRSA) was set aside as the controls. The other two Petri dishes (MSSA and MRSA) were divided up in quadrants, and each quadrant was labeled B, C, D or E.
# (§3) Application: Holding each bottle vertically, the microbiologist added a single drop from each bottle (B, C, D, or E) to the corresponding quadrant of the labeled Petri dish. All four Petri dishes were placed in an incubator overnight at 37 degrees Celsius, and examined 20 hours later. Petri dishes were compared to the corresponding controls, and zones of inhibition were characterized by the largest point of diameter of the circle or oval.
# [1] = test system: ATCC 29213 (MSSA) and ATCC 43330 (MRSA)
# Experimental: Testing was conducted at a pathology laboratory certified for microbiology testing by a physician and a microbiologist. A double blind, randomized controlled experiment was conducted to evaluate the SBDS surfactant against bacteria in Petri dishes.
# as §1, §2
# To evaluate a wider range of surfactant concentrations, cleanser compositions were prepared as follows: A surfactant solution and a stock solution were mixed in various ratios to produce four skin cleanser solutions having four different surfactant concentrations of […], weight-to-weight. The amount of other ingredients in each of the four skin cleanser solutions was less than 1% concentration weight-to-weight.
# Cleanser Testing: Four samples of the cleanser with the four different concentrations of the surfactant […] were placed into four separate, unmarked bottles. Each bottle was randomly labeled (B, C, D, or E), and the microbiologist conducting the study was unaware of any difference between the solutions.
# as §3
compound,measurement,setting,value
CC[C@H]1OC(=O)[C@H](C)[C@@H](O[C@H]2C[C@@](C)(OC)[C@@H](O)[C@H](C)O2)[C@H](C)[C@@H](O[C@@H]2O[C@H](C)C[C@H](N(C)C)[C@H]2O)[C@](C)(OC)C[C@@H](C)C(=O)[C@H](C)[C@@H](O)[C@]1(C)O [Clarythromycin],change in symptoms on antibiotic,mycobacteria marinum,no change in symptoms
CN[C@H](CC(C)C)C(=O)N[C@H]1C(=O)N[C@@H](CC(N)=O)C(=O)N[C@H]2C(=O)N[C@H]3C(=O)N[C@H](C(=O)N[C@H](C(=O)O)c4cc(O)cc(O)c4-c4cc3ccc4O)[C@H](O)c3ccc(c(Cl)c3)Oc3cc2cc(c3O[C@@H]2O[C@H](CO)[C@@H](O)[C@H](O)[C@H]2O[C@H]2C[C@](C)(N)[C@H](O)[C@H](C)O2)Oc2ccc(cc2Cl)[C@H]1O [Vancomycin],share of MRSA patients for whom usually effective,MRSA,about 40%
O=C(O)c1cn(C2CC2)c2cc(N3CCNCC3)c(F)cc2c1=O [ciprofloxacin],course of ulcer on antibiotic,Enterococcus,showed signs of worsening
Sodium Dodecylbenzene Sulfonate [surfactant],Diameter of Zone of Inhibition (mm),MRSA strains; Surfactant conc. 1.00% (vol. %),No Change
same,Diameter of Zone of Inhibition (mm),MRSA strains; Surfactant conc. 2.30% (vol. %),35.3 mm
same,Diameter of Zone of Inhibition (mm),MRSA strains; Surfactant conc. 2.50% (vol. %),33.7 mm
same,Diameter of Zone of Inhibition (mm),MRSA strains; Surfactant conc. 2.80% (vol. %),32.7 mm
same,Diameter of Zone of Inhibition (mm),MRSA strains; Surfactant conc. 3.30% (vol. %),37.3 mm
same,Diameter of Zone of Inhibition (mm),MRSA strains; Surfactant conc. 4.00% (vol. %),39.3 mm
same,Diameter of Zone of Inhibition (mm),MRSA strains; Surfactant conc. 4.90% (vol. %),41.7 mm
same,Diameter of Zone of Inhibition (mm),MRSA strains; Surfactant conc. 6.50% (vol. %),39 mm
same,Diameter of Zone of Inhibition (mm),MRSA strains; Surfactant conc. 9.30% (vol. %),34 mm
same,Diameter of Zone of Inhibition (mm),MRSA strains; Surfactant conc. 14.80% (vol. %),42.3 mm
same,difference from controls,"[1]; surfactant concentration 0.5%, single drop, 20 hours, 37 degrees Celsius",no difference between the controls
same,inhibition of colony forming units (CFUs),[1]; surfactant concentration 1%,approximately 50%
same,inhibition of colony forming units (CFUs),[1]; surfactant concentration 2%,approximately 50%
same,diameter of circle of clear inhibition,[1]; surfactant concentration 8%,approximately 40 mm
